A short description of this data set: in vitro. Particulars: human, hela cells, % viability.

Our source for the viability values is paper PMC12040169 (PLOS Biology, 2025).

As usually defined, the viability is a read-out of living cells in per cent, often relative to untreated cells. For the compound `Cc1nc(C2CCN(C(=O)CC3CCCC3)CC2)ncc1C(=O)Nc1ccc(Cl)cc1` [CBK285847], the viability at 28.5 h, 10 µM was found to be 97.8%.

For `COc1cccc(-c2ccc(NC(=O)CCC3C(=O)Nc4ccccc43)cc2)c1` (stereo not shown) [CBK285851], the viability at 28.5 h, 10 µM turned out to be 116%.

`CCN(Cc1cnc(C)s1)[C@H]1CCO[C@@H](c2ccccc2-c2ccc(OC)cc2)C1` [CBK285853]: the viability at 28.5 h, 10 µM is 95.5%.

On to `CCOc1ccccc1-c1ccccc1NC(=O)c1nc2ccccc2n(C)c1=O` [CBK285855], for which the viability at 28.5 h, 10 µM was 90.1%.

Regarding `CC(C)CNC(=O)c1cc([C@H]2CC[C@H](CNC(=O)Cn3cccn3)CC2)nc2ccccc12` [CBK285860], the viability at 28.5 h, 10 µM was determined as 102%.

As to `CC(C)NC(=O)c1cc([C@H]2CC[C@H](CNC(=O)CN3CCCC3)CC2)nc2ccccc12` [CBK285861], the viability at 28.5 h, 10 µM stood at 85.7%.

With `CCn1nc(C(=O)Nc2ccccc2-c2ccc(OC)cc2)c2ccccc2c1=O` [CBK285864], the viability at 28.5 h, 10 µM stood at 94.1%.

Turning to `COc1ccc(-c2ccccc2NC(=O)c2cccc(CN3CCCC3=O)c2)cc1` [CBK285865], the viability at 28.5 h, 10 µM was 91.4%.

Regarding `Cc1nc(C2CCCCN2C(=O)CCc2ccccc2)ncc1C(=O)Nc1ccc(F)cc1` (stereo not shown) [CBK285870], the viability at 28.5 h, 10 µM came to 95.3%.

On to `Cc1nc(C2CCCCN2C(=O)COc2ccccc2)ncc1C(=O)Nc1ccc(F)cc1` (stereo not shown) [CBK285871], for which the viability at 28.5 h, 10 µM turned out to be 98.6%.

As to `CC(C)NC(=O)c1sc2ccccc2c1C1CCN(C(=O)COc2ccccc2)C1` (stereo not shown) [CBK285875], the viability at 28.5 h, 10 µM worked out at 113%.

For `CNC(=O)c1sc2ccccc2c1C1CCN(C(=O)Cc2coc3c(C)c(C)ccc23)C1` (stereo not shown) [CBK285876], the viability at 28.5 h, 10 µM stood at 90.3%.

On to `CNC(=O)c1sc2ccccc2c1C1CCN(S(=O)(=O)c2ccc(C)c(C)c2)C1` (stereo not shown) [CBK285877], for which the viability at 28.5 h, 10 µM turned out to be 85.8%.

For `CC(C)NC(=O)c1sc2ccccc2c1C1CN(Cc2cccc3ncccc23)CCO1` (stereo not shown) [CBK285879], the viability at 28.5 h, 10 µM stood at 85.6%.

As for `CNC(=O)c1sc2ccccc2c1C1CCN(Cc2cnc(-c3ccc(C)cc3)nc2)C1` (stereo not shown) [CBK285883], the viability at 28.5 h, 10 µM amounted to 108%.

`Nc1nc2c(cc1C(=O)NCc1ccccc1)CN(C(=O)CCCc1ccc(F)cc1)CC2` [CBK285887]: the viability at 28.5 h, 10 µM was 95.3%.

Take `CC(=O)NCc1ccc(-c2ccc(C(=O)NCc3ccc4[nH]c(C)c(C)c4c3)c(C)n2)cc1` [CBK285888]: the viability at 28.5 h, 10 µM stood at 72.1%.

Take `CC(C)NC(=O)c1cc(C2CN(C(=O)CCc3ccccc3F)CCO2)nc2ccccc12` (stereo not shown) [CBK285893]: the viability at 28.5 h, 10 µM turned out to be 109%.

As for `COc1cccc(C(=O)N2CCOC(c3cc(C(=O)NCC(C)C)c4ccccc4n3)C2)c1` (stereo not shown) [CBK285894], the viability at 28.5 h, 10 µM amounted to 97.4%.

Consider `CCOc1cccc(OCC(=O)N2CCC(c3cc(C(=O)NC)c4ccccc4n3)C2)c1` (stereo not shown) [CBK285896], for which the viability at 28.5 h, 10 µM was 81.5%.

As for `CCOc1ccc(CC(=O)NC[C@H]2CC[C@H](c3cc(C(N)=O)c4ccccc4n3)CC2)cc1` [CBK285899], the viability at 28.5 h, 10 µM worked out at 92.2%.

With `CNC(=O)C1(Cc2ccccc2-c2cccs2)CCN(C(=O)CCc2ccccc2)CC1` [CBK285900], the viability at 28.5 h, 10 µM stood at 108%.

Consider `CNC(=O)C1(Cc2ccccc2-c2ccccc2C)CCN(C(=O)Cc2ccccc2)CC1` [CBK285901], for which the viability at 28.5 h, 10 µM stood at 106%.

With `Cc1nc2ccc(NC(=O)CC3CCN(S(=O)(=O)c4cccc(F)c4)CC3)cc2[nH]1` [CBK285903], the viability at 28.5 h, 10 µM is 88.8%.

With `O=C(Nc1nc2c(s1)CCCCC2)C1CN(C(=O)Cc2ccc(F)cc2)C1` [CBK285904], the viability at 28.5 h, 10 µM stood at 87.2%.

As to `CNC(=O)C1(Cc2ccccc2-c2cccs2)CCN(C(=O)c2cccc(OC)c2)CC1` [CBK285907], the viability at 28.5 h, 10 µM came out at 85.7%.

Regarding `COc1cccc(CC(=O)N2CCC(Cc3ccccc3-c3cccs3)(C(N)=O)CC2)c1` [CBK285908], the viability at 28.5 h, 10 µM was 112%.

`CCOc1ccccc1C(=O)N1CCC(Cc2ccccc2-c2ccccc2)(C(N)=O)CC1` [CBK285910]: the viability at 28.5 h, 10 µM came out at 89.6%.
